Values joined by “and” are separate entries in the source; they are usually repeats but may differ in a detail not shown here. Equal values may be shown once.

As a reminder, the logP is a log measure of how a compound divides between an organic and an aqueous phase. Higher therefore signals a more lipophilic compound.

A short description of the first series: logP by HPLC on reversed-phase columns (C18), EEC Directive 79/831 Annex V.A8. Type of series: physicochemical. As to conditions: HPLC reversed-phase C18, acidic range pH 2.7; Preparation Examples (intermediates). How it is done:
The logP values reported in the table above and in the Preparation Examples were determined in accordance with EEC Directive 79/831 Annex V.A8 by HPLC (High Performance Liquid Chromatography) on reversed-phase columns (C18), with the following methods:
The LC-MS determination in the acidic range is carried out at pH 2.7 using the mobile phases 0.1% aqueous formic acid and acetonitrile (contains 0.1% formic acid), linear gradient from 10% acetonitrile to 95% acetonitrile
Calibration was carried out using unbranched alkan-2-ones (having from 3 to 16 carbon atoms) with known logP values (the logP values were determined by the retention times using linear interpolation between two successive alkanones).
For `O=C(Nc1ccc(C(F)(F)F)cc1)c1cc(C(=O)O)n(-c2ncccc2Cl)n1` [Example No. III-8], the logP is on record as 2.67.
In the case of `COC(=O)c1cc(C#Cc2ccc(OC(F)(F)F)cc2)nn1-c1ncccc1Cl` [Example No. VII, methyl 1-(3-chloropyridin-2-yl)-3-{[4-(trifluoromethoxy)phenyl]ethinyl}-1H-pyrazole-5-carboxylate], the logP amounted to 4.46.
In the case of “Methyl 1-(3-chloropyridin-2-yl)-3-{1-hydroxy-2-[5-(trifluoromethyl)-2H-tetrazol-2-yl]ethyl}-1H-pyrazole-5-carboxylate/methyl 1-(3-chloropyridin-2-yl)-3-{1-hydroxy-2-[5-(trifluoromethyl)-1H-tetrazol-1-yl]ethyl}-1H-pyrazole-5-carboxylate [Example No. XII]”, the logP is 2.64 and 2.68.
Same read-out and setting: the same measure for “Methyl 1-(3-chloropyridin-2-yl)-3-{(E)-2-[5-(trifluoromethyl)-2H-tetrazol-2-yl]vinyl}-1H-pyrazole-5-carboxylate/methyl 1-(3-chloropyridin-2-yl)-3-{(E)-2-[5-(trifluoromethyl)-1H-tetrazol-1-yl]vinyl}-1H-pyrazole-5-carboxylate [Example No. XIII]”: 3.37 and 3.49.

Staying with this series, now noted: pH 2.7, log P.
In the case of `CNC(=O)c1cc(C#N)cc(C)c1NC(=O)c1cc(Nc2cccc(C(F)(F)F)n2)nn1-c1ncccc1Cl` [Example 69], the chromatographic logP is 2.89.
With `CNC(=O)c1cc(C#N)cc(C)c1NC(=O)c1cc(Nc2cc(C(F)(F)F)ccn2)nn1-c1ncccc1Cl` [Example 70], the chromatographic logP is 2.76.
On the same count and under the same terms, the same measure for `Cc1cc(C#N)cc(C(=O)NC(C)C)c1NC(=O)c1cc(Nc2ccc(C(F)(F)F)c(C(F)(F)F)c2)nn1-c1ncccc1Cl` [Example 72]: 3.91; for `Cc1cc(C#N)cc(C(=O)NC(C)C)c1NC(=O)c1cc(Nc2cccc(C(F)(F)F)c2)nn1-c1ncccc1Cl` [Example 75]: 3.66.

Still in this series, the particulars now being: reversed-phase HPLC column (C18), pH 2.7, HPLC reversed-phase C18, acidic range pH 2.7, 0.1% aqueous formic acid/acetonitrile; table of compounds of formula (I); read-out: log P.
Regarding `Cc1cc(C#N)cc(C(=O)NC(C)C)c1NC(=O)c1cc(CN(Cc2cc(C(F)(F)F)cc(C(F)(F)F)c2)S(C)(=O)=O)nn1-c1ncccc1Cl` [Example 60], the chromatographic logP was 3.91.
In the case of `Cc1cc(C#N)cc(C(=O)NC(C)C2CC2)c1NC(=O)c1cc(CN(Cc2cc(C(F)(F)F)cc(C(F)(F)F)c2)S(C)(=O)=O)nn1-c1ncccc1Cl` (centres unmarked) [Example 61], the chromatographic logP was found to be 4.12.
For the compound `Cc1cc(C#N)cc(C(=O)NC2CC2)c1NC(=O)c1cc(CN(Cc2cc(C(F)(F)F)cc(C(F)(F)F)c2)S(C)(=O)=O)nn1-c1ncccc1Cl` [Example 62], the chromatographic logP was found to be 3.64.

The same series, now with this note: reversed-phase HPLC column (C18), pH 2.7, HPLC reversed-phase C18, acidic range pH 2.7; Preparation Examples (intermediates); read-out: logP.
For the compound `CN(Cc1cc(C(=O)O)n(-c2ncccc2Cl)n1)S(=O)(=O)Cc1cc(C(F)(F)F)cc(C(F)(F)F)c1` [Example No. III-1, 3-{[{[3,5-bis(trifluoromethyl)benzyl]sulphonyl}(methyl)amino]methyl}-1-(3-chloropyridin-2-yl)-1H-pyrazole-5-carboxylic acid], the chromatographic logP came to 3.07.
In the case of `O=C(C(=O)c1ccc(Cl)cc1Cl)c1cc(C(=O)O)n(-c2ncccc2Cl)n1` [Example No. III-2, 1-(3-chloropyridin-2-yl)-3-[(2,4-dichlorophenyl)(oxo)acetyl]-1H-pyrazole-5-carboxylic acid], the chromatographic logP was determined as 2.78.
Consider `O=C(O)c1cc(C#Cc2ccc(OC(F)(F)F)cc2)nn1-c1ncccc1Cl` [Example No. III-3, 1-(3-chloropyridin-2-yl)-3-{[4-(trifluoromethoxy)phenyl]ethynyl}-1H-pyrazole-5-carboxylic acid], for which the chromatographic logP was found to be 3.36.
For `O=C(Cn1nnc(C(F)(F)F)n1)c1cc(C(=O)O)n(-c2ncccc2Cl)n1` [Example No. III-4, 1-(3-chloropyridin-2-yl)-3-{[5-(trifluoromethyl)-2H-tetrazol-2-yl]acetyl}-1H-pyrazole-5-carboxylic acid], the chromatographic logP is 2.25.
Turning to `O=C(O)c1cc(N2CCN(c3cc(C(F)(F)F)cc(C(F)(F)F)c3)C2=O)nn1-c1ncccc1Cl` [Example No. III-5, 3-{3-[3,5-bis(trifluoromethyl)phenyl]-2-oxoimidazolidin-1-yl}-1-(3-chloropyridin-2-yl)-1H-pyrazole-5-carboxylic acid], the chromatographic logP was determined as 3.47.
On to `O=C(c1ccc(C(F)(F)F)nc1)c1cc(C(=O)O)n(-c2ncccc2Cl)n1` [Example No. III-6, 1-(3-chloropyridin-2-yl)-3-{[6-(trifluoromethyl)pyridin-3-yl]carbonyl}-1H-pyrazole-5-carboxylic acid], for which the chromatographic logP was determined as 2.33.
As for `O=C(O)c1cc(Nc2ccc(C(F)(F)F)cn2)nn1-c1ncccc1Cl` [Example No. III-10, 1-(3-Chloropyridin-2-yl)-3-{[5-(trifluoromethyl)pyridin-2-yl]amino}-1H-pyrazole-5-carboxylic acid], the chromatographic logP turned out to be 2.79.
As for `CCOC(=O)c1cc(C(=O)Cn2nnc(C(F)(F)F)n2)nn1-c1ncccc1Cl` [Example No. IX, ethyl 1-(3-chloropyridin-2-yl)-3-{[5-(trifluoromethyl)-2H-tetrazol-2-yl]acetyl}-1H-pyrazole-5-carboxylate], the chromatographic logP was found to be 3.5.
With `COC(=O)c1cc(C(=O)Nc2ccc(C(F)(F)F)cc2)nn1-c1ncccc1Cl` [Example No. IX-e, methyl 1-(3-chloropyridin-2-yl)-3-{[4-(trifluoromethyl)phenyl]carbamoyl}-1H-pyrazole-5-carboxylate], the chromatographic logP was 3.54.
As to `COC(=O)c1cc(CN(C)S(=O)(=O)Cc2cc(C(F)(F)F)cc(C(F)(F)F)c2)nn1-c1ncccc1Cl` [Example No. V, methyl 3-{[{[3,5-bis(trifluoromethyl)benzyl]sulphonyl}(methyl)amino]methyl}-1-(3-chloropyridin-2-yl)-1H-pyrazole-5-carboxylate], the chromatographic logP was 3.83.
The same measure, in the same setting: the same measure for `CCOC(=O)c1cc(C(C)=O)nn1-c1ncccc1Cl` [Example No. VII-a, ethyl 3-acetyl-1-(3-chloropyridin-2-yl)-1H-pyrazole-5-carboxylate]: 2.31; for `CCOC(=O)c1cc(N2CCN(c3cc(C(F)(F)F)cc(C(F)(F)F)c3)C2=O)nn1-c1ncccc1Cl` [Example No. VII-b, ethyl 3-{3-[3,5-bis(trifluoromethyl)phenyl]-2-oxoimidazolidin-1-yl}-1-(3-chloropyridin-2-yl)-1H-pyrazole-5-carboxylate]: 4.82.
Consider `COC(=O)c1cc(Cc2ccc(C(F)(F)F)nc2)nn1-c1ncccc1Cl` [Example No. VII-c, methyl 1-(3-chloropyridin-2-yl)-3-{[6-(trifluoromethyl)pyridin-3-yl]methyl}-1H-pyrazole-5-carboxylate], for which the chromatographic logP came out at 2.86.
`COC(=O)c1cc(C=O)nn1-c1ncccc1Cl` [Example No. VII-e, methyl 1-(3-chloropyridin-2-yl)-3-formyl-1H-pyrazole-5-carboxylate]: the chromatographic logP stood at 1.82.
In the case of `CCOC(=O)c1cc(C(=O)C(=O)c2ccc(Cl)cc2Cl)nn1-c1ncccc1Cl` [Example No. VIII, ethyl 1-(3-chloropyridin-2-yl)-3-[(2,4-dichlorophenyl)(oxo)acetyl]-1H-pyrazole-5-carboxylate], the chromatographic logP came to 4.29.
Regarding `CCOC(=O)c1cc(C(=O)CBr)nn1-c1ncccc1Cl` [Example No. VIII-a, ethyl 3-(bromoacetyl)-1-(3-chloropyridin-2-yl)-1H-pyrazole-5-carboxylate], the chromatographic logP was 2.87.
Take `COC(=O)c1cc(C(=O)c2ccc(C(F)(F)F)nc2)nn1-c1ncccc1Cl` [Example No. VIII-c, methyl 1-(3-chloropyridin-2-yl)-3-{[6-(trifluoromethyl)pyridin-3-yl]carbonyl}-1H-pyrazole-5-carboxylate]: the chromatographic logP stood at 3.33.
Same read-out and setting: the same measure for `COC(=O)c1cc(C(=O)O)nn1-c1ncccc1Cl` [Example No. VIII-e, 1-(3-chloropyridin-2-yl)-5-(methoxycarbonyl)-1H-pyrazole-3-carboxylic acid]: 1.38; for `COC(=O)c1cc(C2CO2)nn1-c1ncccc1Cl` (centres unmarked) [Example No. XI, Methyl 1-(3-chloropyridin-2-yl)-3-(oxiran-2-yl)-1H-pyrazole-5-carboxylate]: 1.67.
Turning to `COC(=O)c1cc(N)nn1-c1ncccc1Cl` [Example No. XIX, Methyl 3-amino-1-(3-chloropyridin-2-yl)-1H-pyrazole-5-carboxylate], the chromatographic logP stood at 1.09.
Consider `O=[N+]([O-])c1ccn(-c2ncccc2Cl)n1` [Example No. XVI, 3-Chloro-2-(3-nitro-1H-pyrazol-1-yl)pyridine], for which the chromatographic logP came to 1.83.
Same read-out and setting: in the case of `O=C(O)c1cc([N+](=O)[O-])nn1-c1ncccc1Cl` [Example No. XVII, 1-(3-Chloropyridin-2-yl)-3-nitro-1H-pyrazole-5-carboxylic acid] it was 0.9; in that of `COC(=O)c1cc([N+](=O)[O-])nn1-c1ncccc1Cl` [Example No. XVIII, Methyl 1-(3-chloropyridin-2-yl)-3-nitro-1H-pyrazole-5-carboxylate], 2.18.
Same read-out and setting: in the case of `COC(=O)c1cc(Nc2ccc(C(F)(F)F)cn2)nn1-c1ncccc1Cl` [Example No. XX, Methyl 1-(3-chloropyridin-2-yl)-3-{[5-(trifluoromethyl)pyridin-2-yl]amino}-1H-pyrazole-5-carboxylate] it was 3.14.
